Assay results from publication PMC9917201, “Enhanced Antibacterial Activity of Substituted Derivatives of NCR169C Peptide” (International Journal of Molecular Sciences, 2023).
Values after ≈ are worked out from the molar mass of the structure shown. Non-standard residues stand in square brackets, D forms with d. Residues, ends and D or L forms follow the SMILES beside them. ξ: configuration not given here. ξTrp(5-Me) = Cc1ccc2[nH]cc(CC(N)C(=O)O)c2c1; ξTrp(7-aza) = NC(Cc1c[nH]c2ncccc12)C(=O)O

Tests used:
Type in all cases: cell-based
[1] = tested on: Staphylococcus aureus (HNCMO112011); conditions: HNCMO112011, 3 h, pH 7.4
Source text: (§1) The bacterial strains for the antimicrobial assay were obtained from the ATCC (American Type Culture Collection, Manassas, VA, USA) and NCTC (National Collection of Type Cultures, Salisbury, UK). Gram-negative strains were Pseudomonas aeruginosa (ATCC 27853), Escherichia coli (ATCC 8739, ATCC 35218, and ATCC 25922), Salmonella enterica (ATCC 13076), Klebsiella pneumoniae (NCTC 13440), Acinetobacter baumannii (ATCC 17978) and the Gram-positive strains were Enterococcus faecalis (ATCC 29212), Listeria monocytogenes (ATCC 19111), and Staphylococcus aureus (HNCMO112011 and ATCC 25923).
(§2) Determination of antibacterial activity for the peptides was carried out by utilizing a minimum bactericidal concentration (MBC) bioassay. Synthesized peptides were dissolved in sterile water and used from 25 to 0.125 μM in 2-fold dilution series and incubated with ~10^7 log phase bacteria in Potassium-Phosphate Buffer (PPB, pH: 7.4) for three hours as described earlier. After that, 5 μl of each sample was placed on LB agar and the growth of bacteria was monitored after overnight incubation at 37 °C. The lowest concentration of the antimicrobial agents that completely eliminated viable bacteria was considered the minimal bactericidal concentration (MBC).

[2] = tested on: Listeria monocytogenes (ATCC 19111); conditions: ATCC 19111, 3 h, pH 7.4
Source text: as §1, §2

[3] = tested on: Salmonella enterica (ATCC 13076); conditions: ATCC 13076, 3 h, pH 7.4
Source text: as §1, §2

[4] = tested on: Enterococcus faecalis (ATCC 29212); conditions: ATCC 29212, 3 h, pH 7.4
Source text: as §1, §2

[5] = tested on: Pseudomonas aeruginosa (ATCC 27853); conditions: ATCC 27853, 3 h, pH 7.4
Source text: as §1, §2

[6] = tested on: Acinetobacter baumannii (ATCC 17978); conditions: ATCC 17978, 3 h, pH 7.4
Source text: as §1, §2

[7] = tested on: Klebsiella pneumoniae (NCTC 13440); conditions: NCTC 13440, 3 h, pH 7.4
Source text: as §1, §2

[8] = tested on: tested bacteria (ESKAPE pathogens, Listeria monocytogenes, Salmonella enterica); conditions: 3 h, pH 7.4
Source text: as §1, §2

[9] = tested on: Escherichia coli (ATCC 8739); conditions: ATCC 8739, 3 h, pH 7.4
Source text: as §1, §2

Row | Structure (SMILES) | Minimal bactericidal concentration (MBC) S. a. [1] [µM] | Minimal bactericidal concentration (MBC) L. m. [2] [µM] | Minimal bactericidal concentration (MBC) S. e. [3] [µM] | Minimal bactericidal concentration (MBC) E. f. [4] [µM] | Minimal bactericidal concentration (MBC) P. a. [5] [µM] | Minimal bactericidal concentration (MBC) A. b. [6] [µM] | Minimal bactericidal concentration (MBC) K. p. [7] [µM] | MBC against most or all of the tested bacteria [8] [µM] | Minimal bactericidal concentration (MBC) E. c. [9] [µM]
1 | CC[C@H](C)[C@H](NC(=O)[C@H](CCCCN)NC(=O)[C@H](Cc1ccccc1)NC(=O)[C@H](CC(C)C)NC(=O)[C@@H]1CCCN1C(=O)[C@H](CCCCN)NC(=O)[C@H](CCCCN)NC(=O)[C@H](CO)NC(=O)[C@@H](N)CCCCN)C(=O)NC(Cc1c[nH]c2ncccc12)C(=O)N[C@@H](CCCCN)C(=O)N[C@@H](CO)C(=O)N[C@H](C(=O)N[C@@H](CCC(=O)O)C(=O)N[C@@H](CC(N)=O)C(=O)N[C@H](C(=O)N[C@@H](CO)C(=O)N[C@H](C(=O)N[C@@H](CC(C)C)C(=O)N[C@@H](Cc1c[nH]c2ccccc12)C(=O)N[C@@H](Cc1ccc(O)cc1)C(=O)N[C@@H](CCCCN)C(N)=O)C(C)C)C(C)C)C(C)C (stereo partly drawn) [NCR169C17–38C12,17/S-10W^7-Aza II] (H-KSKKPLFKI[ξTrp(7-aza)]KSVENVSVLWYK-NH2; N-terminus assumed) | 3.1 (≈ 8.4 µg/mL) | 3.1 (≈ 8.4 µg/mL) | 3.1 (≈ 8.4 µg/mL) | 3.1 (≈ 8.4 µg/mL) | 3.1 (≈ 8.4 µg/mL) | 6.3 (≈ 17.1 µg/mL) | 6.3 (≈ 17.1 µg/mL) | 3.1 | 3.1 (≈ 8.4 µg/mL)
2 | CC[C@H](C)[C@H](NC(=O)[C@H](CCCCN)NC(=O)[C@H](Cc1ccccc1)NC(=O)[C@H](CC(C)C)NC(=O)[C@@H]1CCCN1C(=O)[C@H](CCCCN)NC(=O)[C@H](CCCCN)NC(=O)[C@H](CO)NC(=O)[C@@H](N)CCCCN)C(=O)NC(Cc1c[nH]c2ncccc12)C(=O)N[C@@H](CCCCN)C(=O)N[C@@H](CO)C(=O)N[C@H](C(=O)N[C@@H](CCC(=O)O)C(=O)N[C@@H](CC(N)=O)C(=O)N[C@H](C(=O)N[C@@H](CO)C(=O)N[C@H](C(=O)N[C@@H](CC(C)C)C(=O)N[C@@H](Cc1c[nH]c2ccccc12)C(=O)N[C@@H](Cc1ccc(O)cc1)C(=O)N[C@@H](CCCCN)C(N)=O)C(C)C)C(C)C)C(C)C (stereo partly drawn) [NCR169C17–38C12,17/S-10W^7-Aza I] (H-KSKKPLFKI[ξTrp(7-aza)]KSVENVSVLWYK-NH2; N-terminus assumed) | 3.1 (≈ 8.4 µg/mL) | 3.1 (≈ 8.4 µg/mL) | 3.1 (≈ 8.4 µg/mL) | 6.3 (≈ 17.1 µg/mL) | 3.1 (≈ 8.4 µg/mL) | 3.1 (≈ 8.4 µg/mL) | 6.3 (≈ 17.1 µg/mL) | 3.1 | 3.1 (≈ 8.4 µg/mL)
3 | CC[C@H](C)[C@H](NC(=O)[C@H](CCCCN)NC(=O)[C@H](Cc1ccccc1)NC(=O)[C@H](CC(C)C)NC(=O)[C@@H]1CCCN1C(=O)[C@H](CCCCN)NC(=O)[C@H](CCCCN)NC(=O)[C@H](CO)NC(=O)[C@@H](N)CCCCN)C(=O)N[C@@H](Cc1c[nH]c2ccccc12)C(=O)N[C@@H](CCCCN)C(=O)N[C@@H](CO)C(=O)N[C@H](C(=O)N[C@@H](CCC(=O)O)C(=O)N[C@@H](CC(N)=O)C(=O)N[C@H](C(=O)N[C@@H](CO)C(=O)N[C@H](C(=O)N[C@@H](CC(C)C)C(=O)NC(Cc1c[nH]c2ccc(C)cc12)C(=O)N[C@@H](Cc1ccc(O)cc1)C(=O)N[C@@H](CCCCN)C(N)=O)C(C)C)C(C)C)C(C)C (stereo partly drawn) [NCR169C17–38C12,17/S-20W^5-Me I] (H-KSKKPLFKIWKSVENVSVL[ξTrp(5-Me)]YK-NH2; N-terminus assumed) | 6.3 (≈ 17.1 µg/mL) | 6.3 (≈ 17.1 µg/mL) | 6.3 (≈ 17.1 µg/mL) | 12.5 (≈ 34 µg/mL) | 6.3 (≈ 17.1 µg/mL) | 6.3 (≈ 17.1 µg/mL) | 12.5 (≈ 34 µg/mL) | 6.3 to 12.5 | 6.3 (≈ 17.1 µg/mL)
